Tested on: cucumber gray mold
Test: fungicidal activity in vitro (inhibition rate) against cucumber gray mold
Assay type: cell-based
Settings: 25 ppm, in vitro; read-out: inhibition rate against cucumber gray mold

Row | Compound | inhibition at 25 ppm [%]
1 | Cc1ncnc(NCc2ccc(Oc3ccc(C(F)(F)F)cn3)cc2)c1Cl [CK22, reference compound] | 0
2 | CC(Cl)c1ncnc(NCCc2ccc(Oc3ccc(C(F)(F)F)cn3)cc2)c1Cl (stereo not shown) [CK24, reference compound] | < 50
3 | CCc1ncnc(OCc2ccc(Oc3ccc(Cl)cc3)nc2)c1Cl [CK25, reference compound] | < 50
4 | N#Cc1ccc(Oc2ccc(CCNc3nc(Cl)ncc3Cl)cc2)nc1 [CK26, reference compound] | 0

Tested on: Diamond back moth
Test: insecticidal activity against diamond back moth, airbrush spray
Assay type: in vivo
Settings: 72 h, 600 mg/L
Procedure, shortened: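 Airbrush leaf-disc spray test: both faces of 2 cm cabbage discs received 0.5 ml of test solution at 0.7 kg/cm^2. Solutions were made in acetone:methanol (1:1) and brought to concentration with 0.1% Tween 80 in water. Ten second-instar larvae per disc, triplicates, were held at 25° C and 60˜70% R.H., with mortality recorded at 72 hrs.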

Row | Compound | pest or weed control at 600 µg/mL [%]
5 | Cc1ncnc(NCc2ccc(Oc3ccc(C(F)(F)F)cn3)cc2)c1Cl [CK22, reference compound] | 0
6 | CCc1ncnc(OCc2ccc(Oc3ccc(Cl)cc3)nc2)c1Cl [CK25, reference compound] | 0
7 | N#Cc1ccc(Oc2ccc(CCNc3nc(Cl)ncc3Cl)cc2)nc1 [CK26, reference compound] | 0

Tested on: carmine spider mite
Test: bioactivity test against carmine spider mite, airbrush spray
Assay type: in vivo
Settings: 2.5 mg/L
Procedure, shortened: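 Broadbean seedlings infested with adult mites were sprayed with compound (acetone/methanol stock diluted in 0.1% Tween 80 water) by airbrush at 0.7 kg/cm^2, 0.5 ml. Three replicates were run. Mortality was scored after 72 hrs.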

Row | Compound | Insecticidal activity against carmine spider mite (% ) [%]
8 | CC(Cl)c1ncnc(NCCc2ccc(Oc3ccc(C(F)(F)F)cn3)cc2)c1Cl (stereo not shown) [CK24, reference compound] | 5

Same assay, conditions: 5 mg/L

Row | Compound | Insecticidal activity against carmine spider mite (% ) [%]
9 | CC(Cl)c1ncnc(NCCc2ccc(Oc3ccc(C(F)(F)F)cn3)cc2)c1Cl (stereo not shown) [CK24, reference compound] | 15

Same assay, conditions: Tetranychus cinnabarinus, 72 h, 10 mg/L; contrastive test; read-out: Insecticidal activity against carmine spider mite (% )

Row | Compound | pest or weed control at 10 µg/mL [%]
10 | CC(Cl)c1ncnc(NCCc2ccc(Oc3ccc(C(F)(F)F)cn3)cc2)c1Cl (stereo not shown) [CK24, reference compound] | 85

Same assay, conditions: Tetranychus cinnabarinus, 72 h, 100 mg/L; contrastive test; read-out: Insecticidal activity against carmine spider mite (% )

Row | Compound | pest or weed control at 100 µg/mL [%]
11 | CC(Cl)c1ncnc(NCCc2ccc(Oc3ccc(C(F)(F)F)cn3)cc2)c1Cl (stereo not shown) [CK24, reference compound] | 100

Same assay, conditions: Tetranychus cinnabarinus, 72 h, 600 mg/L; contrastive test; read-out: Insecticidal activity against carmine spider mite (% )

Row | Compound | pest or weed control at 600 µg/mL [%]
12 | CC(Cl)c1ncnc(NCCc2ccc(Oc3ccc(C(F)(F)F)cn3)cc2)c1Cl (stereo not shown) [CK24, reference compound] | 100
13 | CCc1ncnc(OCc2ccc(Oc3ccc(Cl)cc3)nc2)c1Cl [CK25, reference compound] | 0
14 | N#Cc1ccc(Oc2ccc(CCNc3nc(Cl)ncc3Cl)cc2)nc1 [CK26, reference compound] | 0

Tested on: armyworm
Test: bioactivity test against armyworm, airbrush spray
Assay type: in vivo
Settings: 72 h, 10 mg/L; read-out: Insecticidal activity against armyworm (%)

Row | Compound | pest or weed control at 10 µg/mL [%]
15 | CC(Cl)c1ncnc(NCCc2ccc(Oc3ccc(C(F)(F)F)cn3)cc2)c1Cl (stereo not shown) [CK24, reference compound] | 0

Same assay, conditions: 72 h, 600 mg/L; read-out: Insecticidal activity against armyworm (%)

Row | Compound | pest or weed control at 600 µg/mL [%]
16 | Cc1ncnc(NCc2ccc(Oc3ccc(C(F)(F)F)cn3)cc2)c1Cl [CK22, reference compound] | 0
17 | CCc1ncnc(OCc2ccc(Oc3ccc(Cl)cc3)nc2)c1Cl [CK25, reference compound] | 0
18 | N#Cc1ccc(Oc2ccc(CCNc3nc(Cl)ncc3Cl)cc2)nc1 [CK26, reference compound] | 0

Tested on: Green peach aphids (Myzus Persicae Sulzer)
Test: bioactivity test against green peach aphid, airbrush foliar spray
Assay type: in vivo
Settings: Myzus persicae, foliar, 48 h, 2.5 mg/L; contrastive test; read-out: Insecticidal activity against peach aphid (%)
Procedure, shortened: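 Death rate was scored at 48 hrs, held at 25±1 C and 60±5% RH, following airbrush foliar spray (0.5 mL, 10 psi) onto cabbage leaf discs bearing about 15-30 aphids. Test solutions: compound dissolved in 1:1 acetone:methanol, brought to concentration with 0.1% tween 80 water.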

Row | Compound | pest or weed control at 2.5 µg/mL [%]
19 | CC(Cl)c1ncnc(NCCc2ccc(Oc3ccc(C(F)(F)F)cn3)cc2)c1Cl (stereo not shown) [CK24, reference compound] | 0

Same assay, conditions: Myzus persicae, foliar, 48 h, 5 mg/L; contrastive test; read-out: Insecticidal activity against peach aphid (%)

Row | Compound | pest or weed control at 5 µg/mL [%]
20 | CC(Cl)c1ncnc(NCCc2ccc(Oc3ccc(C(F)(F)F)cn3)cc2)c1Cl (stereo not shown) [CK24, reference compound] | 28

Same assay, conditions: Myzus persicae, foliar, 48 h, 10 mg/L; contrastive test; read-out: Insecticidal activity against peach aphid (%)

Row | Compound | pest or weed control at 10 µg/mL [%]
21 | CC(Cl)c1ncnc(NCCc2ccc(Oc3ccc(C(F)(F)F)cn3)cc2)c1Cl (stereo not shown) [CK24, reference compound] | 89
22 | N#Cc1ccc(Oc2ccc(CCNc3nc(Cl)ncc3Cl)cc2)nc1 [CK26, reference compound] | 45

Same assay, conditions: Myzus persicae, foliar, 48 h, 100 mg/L; contrastive test; read-out: Insecticidal activity against peach aphid (%)

Row | Compound | pest or weed control at 100 µg/mL [%]
23 | CC(Cl)c1ncnc(NCCc2ccc(Oc3ccc(C(F)(F)F)cn3)cc2)c1Cl (stereo not shown) [CK24, reference compound] | 100
24 | N#Cc1ccc(Oc2ccc(CCNc3nc(Cl)ncc3Cl)cc2)nc1 [CK26, reference compound] | 48

Same assay, conditions: Myzus persicae, foliar, 48 h, 600 mg/L; contrastive test; read-out: Insecticidal activity against peach aphid (%)

Row | Compound | pest or weed control at 600 µg/mL [%]
25 | Cc1ncnc(NCc2ccc(Oc3ccc(C(F)(F)F)cn3)cc2)c1Cl [CK22, reference compound] | 0
26 | CC(Cl)c1ncnc(NCCc2ccc(Oc3ccc(C(F)(F)F)cn3)cc2)c1Cl (stereo not shown) [CK24, reference compound] | 100
27 | CCc1ncnc(OCc2ccc(Oc3ccc(Cl)cc3)nc2)c1Cl [CK25, reference compound] | 0
28 | N#Cc1ccc(Oc2ccc(CCNc3nc(Cl)ncc3Cl)cc2)nc1 [CK26, reference compound] | 100

Tested on: wheat powdery mildew
Test: protectant activity in vivo against wheat powdery mildew
Settings: Triticum aestivum, 168 h, read-out: control effect against wheat powdery mildew (%), 6.25 mg/L; protectant activity

Row | Compound | pest or weed control at 6.25 µg/mL [%]
29 | Cc1ncnc(NCc2ccc(Oc3ccc(C(F)(F)F)cn3)cc2)c1Cl [CK22, reference compound] | 0

Same assay, conditions: Triticum aestivum, 168 h, read-out: control effect against wheat powdery mildew (%), 25 mg/L; protectant activity

Row | Compound | pest or weed control at 25 µg/mL [%]
30 | Cc1ncnc(NCc2ccc(Oc3ccc(C(F)(F)F)cn3)cc2)c1Cl [CK22, reference compound] | 50

Same assay, conditions: Triticum aestivum, 168 h, read-out: control effect against wheat powdery mildew (%), 100 mg/L; protectant activity

Row | Compound | pest or weed control at 100 µg/mL [%]
31 | Cc1ncnc(NCc2ccc(Oc3ccc(C(F)(F)F)cn3)cc2)c1Cl [CK22, reference compound] | 90
32 | CC(Cl)c1ncnc(NCCc2ccc(Oc3ccc(C(F)(F)F)cn3)cc2)c1Cl (stereo not shown) [CK24, reference compound] | 0

Same assay, conditions: Triticum aestivum, 168 h, read-out: control effect against wheat powdery mildew (%), 400 mg/L; protectant activity

Row | Compound | pest or weed control at 400 µg/mL [%]
33 | Cc1ncnc(NCc2ccc(Oc3ccc(C(F)(F)F)cn3)cc2)c1Cl [CK22, reference compound] | 100
34 | CC(Cl)c1ncnc(NCCc2ccc(Oc3ccc(C(F)(F)F)cn3)cc2)c1Cl (stereo not shown) [CK24, reference compound] | 0
35 | CCc1ncnc(OCc2ccc(Oc3ccc(Cl)cc3)nc2)c1Cl [CK25, reference compound] | 0
36 | N#Cc1ccc(Oc2ccc(CCNc3nc(Cl)ncc3Cl)cc2)nc1 [CK26, reference compound] | 70

Tested on: corn rust
Test: protectant activity in vivo against corn rust
Settings: Zea mays, 168 h, read-out: control effect against corn rust (%), 6.25 mg/L; protectant activity

Row | Compound | pest or weed control at 6.25 µg/mL [%]
37 | Cc1ncnc(NCc2ccc(Oc3ccc(C(F)(F)F)cn3)cc2)c1Cl [CK22, reference compound] | 0
38 | CC(Cl)c1ncnc(NCCc2ccc(Oc3ccc(C(F)(F)F)cn3)cc2)c1Cl (stereo not shown) [CK24, reference compound] | 0
39 | N#Cc1ccc(Oc2ccc(CCNc3nc(Cl)ncc3Cl)cc2)nc1 [CK26, reference compound] | 0

Same assay, conditions: Zea mays, 168 h, read-out: control effect against corn rust (%), 25 mg/L; protectant activity

Row | Compound | pest or weed control at 25 µg/mL [%]
40 | Cc1ncnc(NCc2ccc(Oc3ccc(C(F)(F)F)cn3)cc2)c1Cl [CK22, reference compound] | 40
41 | CC(Cl)c1ncnc(NCCc2ccc(Oc3ccc(C(F)(F)F)cn3)cc2)c1Cl (stereo not shown) [CK24, reference compound] | 20
42 | N#Cc1ccc(Oc2ccc(CCNc3nc(Cl)ncc3Cl)cc2)nc1 [CK26, reference compound] | 0

Same assay, conditions: Zea mays, 168 h, read-out: control effect against corn rust (%), 100 mg/L; protectant activity

Row | Compound | pest or weed control at 100 µg/mL [%]
43 | Cc1ncnc(NCc2ccc(Oc3ccc(C(F)(F)F)cn3)cc2)c1Cl [CK22, reference compound] | 100
44 | CC(Cl)c1ncnc(NCCc2ccc(Oc3ccc(C(F)(F)F)cn3)cc2)c1Cl (stereo not shown) [CK24, reference compound] | 50
45 | N#Cc1ccc(Oc2ccc(CCNc3nc(Cl)ncc3Cl)cc2)nc1 [CK26, reference compound] | 0

Same assay, conditions: Zea mays, 168 h, read-out: control effect against corn rust (%), 400 mg/L; protectant activity

Row | Compound | pest or weed control at 400 µg/mL [%]
46 | Cc1ncnc(NCc2ccc(Oc3ccc(C(F)(F)F)cn3)cc2)c1Cl [CK22, reference compound] | 100
47 | CC(Cl)c1ncnc(NCCc2ccc(Oc3ccc(C(F)(F)F)cn3)cc2)c1Cl (stereo not shown) [CK24, reference compound] | 100
48 | CCc1ncnc(OCc2ccc(Oc3ccc(Cl)cc3)nc2)c1Cl [CK25, reference compound] | 0
49 | N#Cc1ccc(Oc2ccc(CCNc3nc(Cl)ncc3Cl)cc2)nc1 [CK26, reference compound] | 100

Tested on: cucumber downy mildew
Test: protectant activity in vivo against cucumber downy mildew
Settings: Cucumis sativus, 168 h, read-out: control effect against cucumber downy mildew (%), 25 mg/L; protectant activity

Row | Compound | pest or weed control at 25 µg/mL [%]
50 | Cc1ncnc(NCc2ccc(Oc3ccc(C(F)(F)F)cn3)cc2)c1Cl [CK22, reference compound] | 60
51 | CCc1ncnc(OCc2ccc(Oc3ccc(Cl)cc3)nc2)c1Cl [CK25, reference compound] | 0
52 | N#Cc1ccc(Oc2ccc(CCNc3nc(Cl)ncc3Cl)cc2)nc1 [CK26, reference compound] | 0

Same assay, conditions: Cucumis sativus, 168 h, read-out: control effect against cucumber downy mildew (%), 50 mg/L; protectant activity

Row | Compound | pest or weed control at 50 µg/mL [%]
53 | Cc1ncnc(NCc2ccc(Oc3ccc(C(F)(F)F)cn3)cc2)c1Cl [CK22, reference compound] | 75
54 | CCc1ncnc(OCc2ccc(Oc3ccc(Cl)cc3)nc2)c1Cl [CK25, reference compound] | 0
55 | N#Cc1ccc(Oc2ccc(CCNc3nc(Cl)ncc3Cl)cc2)nc1 [CK26, reference compound] | 40

Same assay, conditions: Cucumis sativus, 168 h, read-out: control effect against cucumber downy mildew (%), 100 mg/L; protectant activity

Row | Compound | pest or weed control at 100 µg/mL [%]
56 | Cc1ncnc(NCc2ccc(Oc3ccc(C(F)(F)F)cn3)cc2)c1Cl [CK22, reference compound] | 98
57 | CCc1ncnc(OCc2ccc(Oc3ccc(Cl)cc3)nc2)c1Cl [CK25, reference compound] | 0
58 | N#Cc1ccc(Oc2ccc(CCNc3nc(Cl)ncc3Cl)cc2)nc1 [CK26, reference compound] | 60

Same assay, conditions: Cucumis sativus, 168 h, read-out: control effect against cucumber downy mildew (%), 400 mg/L; protectant activity

Row | Compound | pest or weed control at 400 µg/mL [%]
59 | Cc1ncnc(NCc2ccc(Oc3ccc(C(F)(F)F)cn3)cc2)c1Cl [CK22, reference compound] | 100
60 | CCc1ncnc(OCc2ccc(Oc3ccc(Cl)cc3)nc2)c1Cl [CK25, reference compound] | 100
61 | N#Cc1ccc(Oc2ccc(CCNc3nc(Cl)ncc3Cl)cc2)nc1 [CK26, reference compound] | 100

Source: patent US9770026B2, “Substituted pyrimidine compound and uses thereof” (Shenyang Sinochem Agrochemicals R&D Co., Ltd., priority 2012, dated 2017)
